This note sets out measurements from patent publication US20250064945A1 (Arvinas Operations, Inc., priority 2021, published 2025).

This assay deals with T1, BRM (Homo sapiens, UniProt P51531).
T1 construct: In-Cell Western Screen of BRM Degradation in SW1573 Cells; endogenous in cells; host or cells: SW1573 cells
The assay can be described thus: Western blot / In-Cell Western screen of BRM degradation in SW1573 cells. The format is cell-based. The note with it: overnight (18-20 hours) treatment; for Dmax: read-out: Dmax (%) (% degraded). Here is the method:
Western Blot Screen of BRM Degradation in SW1573 Cells
To assess BRM degradation (Dmax and DC50) cells were seeded at 8000/well in 96-well black/clear-bottom plates in 180 μL DMEM growth media (containing 1% pen-strep, 1% HEPES and 10% FBS) per well. Plates were incubated overnight to allow adhesion. The next morning cells were treated by adding 20 μL of 10× target compound concentration (1% DMSO) to appropriate wells and returned to incubator for overnight (18-20 hours). The final DMSO concentration was 0.1%.
For lysing, adherent cells were washed once with 100 μL of DPBS. Cells were lysed in 40 μL of 1× RIPA+HALT protease inhibitor on ice for 10 minutes and frozen until use at −80° C. Thawed lysates were cleaned by filtration in 1.2 µm filter plates, or alternatively, were spun clean at 2300 g at 4° C. for 30 minutes.
For blotting, for each Western sample 30 μL of lysate was added to 10 μL of 4×LDS sample buffer, then denatured at 95° C. for 5 minutes in the thermal cycler and placed on ice. Samples were loaded on 4-15% Tris/Glycine gels and run for 25 minutes at 250 constant volts in 1×Tris/Glycine buffer with 4 μL of ladder and 12 μL of each sample loaded for each blot. Protein was transferred from gels to NC with BioRad Turbo dry-transfer unit with the Turbo/midi default program. All blots were rinsed with ddH2O and blocked for 1 hour at room temperature in 5% BSA in TBST (0.1%) on rocker. Blots were exposed to primary antibody in 5% BSA in TBST (0.1%) overnight at 4° C. on rocker (1:1000 for BRM (Cell Signaling Tech. cat #11966) and 1:2000 for alpha-tubulin (Cell Signaling Tech. cat #3873), a control protein. Blot was washed with TBST (0.1%) three times for 5 minutes on rocker at room temperature. Secondary antibody was added, and blots were incubated on a room temperature rocker for 1 hour with 1:18,000 anti-rabbit-HRP and/or anti-mouse-HRP in 5% BSA in TBST (0.1%). Blots were washed three times in TBST (0.1%) for 5 minutes at room temperature on the rocker. Signal was developed with Femto Maximum Sensitivity substrate for 4 minutes and blots read on ChemiDoc™.
In-Cell Western Screen of BRM Degradation in SW1573 Cells
To assess BRM degradation (Dmax and DC50), cells were seeded at 8000/well in 96-well black/clear-bottom plates in 180 μL DMEM growth media (containing 1% pen-strep, 1% HEPES and 10% FBS) per well. Plates were incubated overnight to allow adhesion. The next morning cells were treated by adding 20 μL of 10× compound (1% DMSO) to appropriate wells and returned to incubator for overnight (18-20 hours). The final DMSO concentration was 0.1%.
For processing, the plates were removed from incubator, the media was removed, and immediately 200 μL of cold (4° C.) DPBS was added to all wells. DPBS was then removed, and 50 μL of 4% paraformaldehyde (PFA) in DPBS (4° C.) was added to all wells, and the plates were incubated at room temperature for 20 minutes. PFA was then removed, and 200 μL of TBS-T containing 0.5% Triton X-100 was added to all wells, and the plates were incubated at room temperature for 30 minutes. TBS-T containing 0.5% Triton X-100 was then removed, and 50 μL of Li-Cor blocking solution was added, and the plates were incubated at room temperature for a minimum of one hour. The blocking solution was removed, and 50 μL of Li-Cor blocking solution containing primary antibody cocktail was added (1:1000 for BRM (Cell Signaling Tech. cat #11966) and 1:2000 for alpha-tubulin (Sigma cat #T6074), a control protein. Plates were then placed in cold room until the next day.
The next day plates were washed three times with TBS-T, 200 μL per well. Fifty […] of secondary antibody cocktail in LI-COR blocking solution (anti-rabbit_800 nm and anti-mouse_680 nm) was added to all wells (diluted 1:5000). The plates were incubated at room temperature for at least one hour while protected from light. The plates were washed twice with TBS-T, 200 μL per well. […]
For orientation: A western blot detects proteins with antibodies after separation by electrophoresis.

Structures are written as SMILES.

T1 sequence (P51531 whole entry): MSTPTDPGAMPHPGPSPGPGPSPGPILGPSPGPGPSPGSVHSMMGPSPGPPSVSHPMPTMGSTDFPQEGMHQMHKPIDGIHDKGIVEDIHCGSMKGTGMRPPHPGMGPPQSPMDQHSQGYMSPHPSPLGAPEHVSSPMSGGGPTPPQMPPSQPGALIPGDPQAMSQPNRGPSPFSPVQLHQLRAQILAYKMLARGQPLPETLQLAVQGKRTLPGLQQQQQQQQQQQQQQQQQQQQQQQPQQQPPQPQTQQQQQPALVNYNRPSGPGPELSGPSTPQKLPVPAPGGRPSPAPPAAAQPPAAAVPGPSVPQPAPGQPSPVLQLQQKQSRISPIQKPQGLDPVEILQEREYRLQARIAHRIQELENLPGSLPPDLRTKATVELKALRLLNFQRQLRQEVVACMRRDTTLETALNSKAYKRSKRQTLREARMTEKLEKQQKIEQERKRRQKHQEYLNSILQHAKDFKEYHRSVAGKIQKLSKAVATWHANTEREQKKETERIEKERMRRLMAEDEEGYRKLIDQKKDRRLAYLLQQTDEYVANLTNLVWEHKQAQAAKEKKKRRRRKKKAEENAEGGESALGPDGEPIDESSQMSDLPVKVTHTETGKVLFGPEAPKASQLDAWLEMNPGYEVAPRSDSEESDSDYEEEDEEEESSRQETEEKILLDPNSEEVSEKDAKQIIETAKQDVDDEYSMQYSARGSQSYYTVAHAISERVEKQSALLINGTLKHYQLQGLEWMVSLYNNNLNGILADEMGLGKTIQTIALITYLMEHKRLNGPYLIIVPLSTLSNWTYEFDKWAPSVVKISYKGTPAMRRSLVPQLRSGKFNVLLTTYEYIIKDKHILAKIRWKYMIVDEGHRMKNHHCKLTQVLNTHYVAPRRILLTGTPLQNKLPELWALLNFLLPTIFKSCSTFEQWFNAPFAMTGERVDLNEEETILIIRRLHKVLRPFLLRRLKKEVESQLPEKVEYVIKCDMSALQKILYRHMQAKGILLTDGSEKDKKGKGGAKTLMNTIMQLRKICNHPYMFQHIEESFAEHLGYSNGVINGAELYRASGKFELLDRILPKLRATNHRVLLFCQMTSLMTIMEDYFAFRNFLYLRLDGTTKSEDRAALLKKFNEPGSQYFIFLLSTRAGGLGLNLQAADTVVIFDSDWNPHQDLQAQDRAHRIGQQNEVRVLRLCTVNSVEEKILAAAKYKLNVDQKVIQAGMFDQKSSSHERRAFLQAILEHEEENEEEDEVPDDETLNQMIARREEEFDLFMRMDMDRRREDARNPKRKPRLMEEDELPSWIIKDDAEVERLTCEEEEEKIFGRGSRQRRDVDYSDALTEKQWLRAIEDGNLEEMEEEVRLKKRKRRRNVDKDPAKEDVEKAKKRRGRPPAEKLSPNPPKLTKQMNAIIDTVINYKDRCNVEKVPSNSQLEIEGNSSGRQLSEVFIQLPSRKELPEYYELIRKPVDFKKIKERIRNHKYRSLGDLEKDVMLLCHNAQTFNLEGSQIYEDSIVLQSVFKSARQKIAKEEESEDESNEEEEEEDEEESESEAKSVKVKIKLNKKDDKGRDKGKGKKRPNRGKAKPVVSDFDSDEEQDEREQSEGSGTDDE

The DC50 is the concentration giving 50% degradation. Lower therefore signals a more potent degrader. In general, Dmax refers to the largest share of the target that was removed. With `Cc1ncsc1-c1ccc([C@H](C)NC(=O)[C@@H]2C[C@@H](O)CN2C(=O)[C@@H](c2cc(N3CCC(CN4CCC(O[C@H]5C[C@H](N6CCN(C[C@@H]7[C@H]8CN(c9cc(-c%10ccccc%10O)nnc9N)C[C@@H]78)CC6)C5)CC4)CC3)no2)C(C)C)cc1` [Compound 9, (2S,4R)-4-hydroxy-N-[(1S)-1-[4-(4-methyl-1,3-thiazol-5-yl)phenyl]ethyl]-1-[(2R)-3-methyl-2-{3-[4-({4-[(1r,3r)-3-(4-{[(1R,5S,6S)-3-[3-amino-6-(2-hydroxyphenyl)pyridazin-4-yl]-3-azabicyclo[3.1.0]hexan-6-yl]methyl}piperazin-1-yl)cyclobutoxy]piperidin-1-yl}methyl)piperidin-1-yl]-1,2-oxazol-5-yl}butanoyl]pyrrolidine-2-carboxamide], the DC50 is < 0.0025 µM and the Dmax was > 75%.
On to `Cc1ncsc1-c1ccc([C@H](C)NC(=O)[C@@H]2C[C@@H](O)CN2C(=O)[C@@H](c2cc(N3CCC(CN4CCC(O[C@H]5C[C@H](N6CCC(CN7CC8(C7)CN(c7cc(-c9ccccc9O)nnc7N)CCO8)CC6)C5)CC4)CC3)no2)C(C)C)cc1` [Compound 11, (2S,4R)-4-hydroxy-N-[(1S)-1-[4-(4-methyl-1,3-thiazol-5-yl)phenyl]ethyl]-1-[(2R)-3-methyl-2-{3-[4-({4-[(1r,3r)-3-[4-({8-[3-amino-6-(2-hydroxyphenyl)pyridazin-4-yl]-5-oxa-2,8-diazaspiro[3.5]nonan-2-yl}methyl)piperidin-1-yl]cyclobutoxy]piperidin-1-yl}methyl)piperidin-1-yl]-1,2-oxazol-5-yl}butanoyl]pyrrolidine-2-carboxamide], for which the DC50 lay in the range of 0.0025 to 0.01 µM and the Dmax is > 75%.
For `Cc1ncsc1-c1ccc([C@H](C)NC(=O)[C@@H]2C[C@@H](O)CN2C(=O)[C@@H](c2cc(N3CCC(CN4CCC(O[C@H]5C[C@H](n6cc(CN7C8CCC7CN(c7cc(-c9ccccc9O)nnc7N)C8)cn6)C5)CC4)CC3)no2)C(C)C)cc1` [Compound 12, (2S,4R)-4-hydroxy-N-[(1S)-1-[4-(4-methyl-1,3-thiazol-5-yl)phenyl]ethyl]-1-[(2R)-3-methyl-2-{3-[4-({4-[(1r,3r)-3-[4-({3-[3-amino-6-(2-hydroxyphenyl)pyridazin-4-yl]-3,8-diazabicyclo[3.2.1]octan-8-yl}methyl)-1H-pyrazol-1-yl]cyclobutoxy]piperidin-1-yl}methyl)piperidin-1-yl]-1,2-oxazol-5-yl}butanoyl]pyrrolidine-2-carboxamide], the DC50 fell in the range of 0.0025 to 0.01 µM and the Dmax was > 75%.
The corresponding values for `Cc1ncsc1-c1ccc([C@H](C)NC(=O)[C@@H]2C[C@@H](O)CN2C(=O)[C@@H](c2cc(N3CCC(CN4CCC(O[C@H]5C[C@H](N6CCC(CN7CCN(c8cc(-c9ccccc9O)nnc8N)CC78COC8)CC6)C5)CC4)CC3)no2)C(C)C)cc1` [Compound 13, (2S,4R)-4-hydroxy-N-[(1S)-1-[4-(4-methyl-1,3-thiazol-5-yl)phenyl]ethyl]-1-[(2R)-3-methyl-2-{3-[4-({4-[(1r,3r)-3-[4-({8-[3-amino-6-(2-hydroxyphenyl)pyridazin-4-yl]-2-oxa-5,8-diazaspiro[3.5]nonan-5-yl}methyl)piperidin-1-yl]cyclobutoxy]piperidin-1-yl}methyl)piperidin-1-yl]-1,2-oxazol-5-yl}butanoyl]pyrrolidine-2-carboxamide] are < 0.0025 µM and > 75%.
On to `Cc1ncsc1-c1ccc([C@H](C)NC(=O)[C@@H]2C[C@@H](O)CN2C(=O)[C@@H](c2cc(N3CCC(CN4CCC(O[C@H]5C[C@H](n6ccc(CN7C8CCC7CN(c7cc(-c9ccccc9O)nnc7N)C8)n6)C5)CC4)CC3)no2)C(C)C)cc1` [Compound 14, (2S,4R)-4-hydroxy-N-[(1S)-1-[4-(4-methyl-1,3-thiazol-5-yl)phenyl]ethyl]-1-[(2R)-3-methyl-2-{3-[4-({4-[(1r,3r)-3-[3-({3-[3-amino-6-(2-hydroxyphenyl)pyridazin-4-yl]-3,8-diazabicyclo[3.2.1]octan-8-yl}methyl)-1H-pyrazol-1-yl]cyclobutoxy]piperidin-1-yl}methyl)piperidin-1-yl]-1,2-oxazol-5-yl}butanoyl]pyrrolidine-2-carboxamide], for which the DC50 was ≥ 0.03 µM.
Regarding `Cc1ncsc1-c1ccc([C@H](C)NC(=O)[C@@H]2C[C@@H](O)CN2C(=O)[C@@H](c2cc(OCCN3CCN(CCOc4cc(N5CCN(c6cc(-c7ccccc7O)nnc6N)CC56COC6)ccn4)CC3)no2)C(C)C)cc1` [Compound 15, (2S,4R)-1-[(2R)-2-{3-[2-(4-{2-[(4-{8-[3-amino-6-(2-hydroxyphenyl)pyridazin-4-yl]-2-oxa-5,8-diazaspiro[3.5]nonan-5-yl}pyridin-2-yl)oxy]ethyl}piperazin-1-yl)ethoxy]-1,2-oxazol-5-yl}-3-methylbutanoyl]-4-hydroxy-N-[(1S)-1-[4-(4-methyl-1,3-thiazol-5-yl)phenyl]ethyl]pyrrolidine-2-carboxamide], the DC50 was < 0.0025 µM and the Dmax is > 75%.
On to `Cc1ncsc1-c1ccc([C@H](C)NC(=O)[C@@H]2C[C@@H](O)CN2C(=O)[C@H](c2cc(OCCN3CCN(CCOc4cc(N5CCN(c6cc(-c7ccccc7O)nnc6N)CC56COC6)ccn4)CC3)no2)C(C)C)cn1` [Compound 16, (2S,4R)-1-[(2S)-2-{3-[2-(4-{2-[(4-{8-[3-amino-6-(2-hydroxyphenyl)pyridazin-4-yl]-2-oxa-5,8-diazaspiro[3.5]nonan-5-yl}pyridin-2-yl)oxy]ethyl}piperazin-1-yl)ethoxy]-1,2-oxazol-5-yl}-3-methylbutanoyl]-4-hydroxy-N-[(1S)-1-[6-(4-methyl-1,3-thiazol-5-yl)pyridin-3-yl]ethyl]pyrrolidine-2-carboxamide], for which the DC50 was ≥ 0.03 µM.
`Cc1ncsc1-c1ccc([C@H](C)NC(=O)[C@@H]2C[C@@H](O)CN2C(=O)[C@@H](c2cc(OCCN3CCN(CCOc4cc(N5CCN(c6cc(-c7ccccc7O)nnc6N)CC56COC6)ccn4)CC3)no2)C(C)C)cn1` [Compound 17, (2S,4R)-1-[(2R)-2-{3-[2-(4-{2-[(4-{8-[3-amino-6-(2-hydroxyphenyl)pyridazin-4-yl]-2-oxa-5,8-diazaspiro[3.5]nonan-5-yl}pyridin-2-yl)oxy]ethyl}piperazin-1-yl)ethoxy]-1,2-oxazol-5-yl}-3-methylbutanoyl]-4-hydroxy-N-[(1S)-1-[6-(4-methyl-1,3-thiazol-5-yl)pyridin-3-yl]ethyl]pyrrolidine-2-carboxamide]: the DC50 lay in the range of 0.0025 to 0.01 µM and the Dmax is > 75%.
The corresponding values for `Cc1ncsc1-c1ccc([C@H](C)NC(=O)[C@@H]2C[C@@H](O)CN2C(=O)[C@@H](c2cc(N3CCC(CN4CCC5(CC4)CC(N4CCO[C@@H](CN6CC7(CCN(c8cc(-c9ccccc9O)nnc8N)CC7)C6)C4)C5)CC3)no2)C(C)C)cc1` [Compound 18, (2S,4R)-1-[(2R)-2-{3-[4-({2-[(2S)-2-({7-[3-amino-6-(2-hydroxyphenyl)pyridazin-4-yl]-2,7-diazaspiro[3.5]nonan-2-yl}methyl)morpholin-4-yl]-7-azaspiro[3.5]nonan-7-yl}methyl)piperidin-1-yl]-1,2-oxazol-5-yl}-3-methylbutanoyl]-4-hydroxy-N-[(1S)-1-[4-(4-methyl-1,3-thiazol-5-yl)phenyl]ethyl]pyrrolidine-2-carboxamide] are 0.01 to 0.03 µM and > 75%.
